The source of these data is patent US12264170B2, “Antimicrobial organosilanes” (TOPIKOS SCIENTIFIC, INC., priority 2019, dated 2025).

Data set [1] can be described thus: Dissolution of isolated product in water. It counts as physicochemical. The following applies: observation.
For data set [2] the following is noted: product dissolved in water, observation.

In the case of `CCCCCCCCCCCCCCCCCC[N+](C)(C)CCC[Si](OCC(CO)(CO)NCCS(=O)(=O)[O-])(OCC(CO)(CO)NCCS(=O)(=O)O)OCC(CO)(CO)NCCS(=O)(=O)O` [Example 1, Disodium; 2-[[1-[[3-[dimethyl(octadecyl)ammonio]propyl-[3-hydroxy-2-(hydroxymethyl)-2-(2-sulfoethylamino)propoxy]-[3-hydroxy-2-(hydroxymethyl)-2-(2-sulfonatoethylamino)propoxy]silyl]oxymethyl]-2-hydroxy-1-(hydroxymethyl)ethyl]amino]ethanesulfonate chloride], the dissolution in water result in data set [1] was “dissolves in water”.
Still for that read-out and setting: next, `CCCCCCCCCCCCCCCCCC[N+](C)(C)CCC[Si](OCC(CO)(CO)NCC(O)CS(=O)(=O)[O-])(OCC(CO)(CO)NCC(O)CS(=O)(=O)O)OCC(CO)(CO)NCC(O)CS(=O)(=O)O` (stereo not shown) [Example 2, Disodium; 3-[[1-[[3-[dimethyl(octadecyl)ammonio]propyl-[3-hydroxy-2-(hydroxymethyl)-2-[(2-hydroxy-3-sulfonato-propyl)amino]propoxy]-[3-hydroxy-2-(hydroxymethyl)-2-[(2-hydroxy-3-sulfo-propyl)amino]propoxy]silyl]oxymethyl]-2-hydroxy-1-(hydroxymethyl)ethyl]amino]-2-hydroxy-propane-1-sulfonate; chloride]: “dissolves in water”; `CCCCCCCCCCCCCCCCCC[N+](C)(C)CCC[Si](OCC(CO)(CO)NCCS(=O)(=O)[O-])(OCC(CO)(CO)NCCS(=O)(=O)O)OCC(CO)(CO)NCCS(=O)(=O)O` [Example 4, Sodium; 7,7-bis(3-hydroxy-2-(hydroxymethyl)-2-((2-sulfoethyl)amino)propoxy)-4,4-bis(hydroxymethyl)-11,11-dimethyl-6-oxa-3,11-diaza-7-silanonacosan-11-ium-1-sulfonate; chloride]: “dissolved quickly in water, initially hazy but slowly forms clear”.
With `CCCCCCCCCCCCCCCCC[N+](C)(C)CCC[Si](OCCN(CCO)CC(O)CS(=O)(=O)[O-])(OCCN(CCO)CC(O)CS(=O)(=O)O)OCCN(CCO)CC(O)CS(=O)(=O)O` (stereo not shown) [Example 8, Disodium; 3-[2-[3-[heptadecyl(dimethyl)ammonio]propyl-[2-[2-hydroxyethyl-(2-hydroxy-3-sulfonato-propyl)amino]ethoxy]-[2-[2-hydroxyethyl-(2-hydroxy-3-sulfo-propyl)amino]ethoxy]silyl]oxyethyl-(2-hydroxyethyl)amino]-2-hydroxy-propane-1-sulfonate; chloride], the dissolution in water result in data set [1] is “dissolved in water”. Besides, in data set [2], the stability in water entry is on record as “forms a precipitate after 5 hours”.
On to `CCCCCCCCCCCCCCCCCC[N+](C)(C)CCC[Si](OCC(CO)(CO)NCC(=O)[O-])(OCC(CO)(CO)NCC(=O)[O-])OCC(CO)(CO)NCC(=O)O.[Cl-].[Na+].[Na+]` [Example 10, Disodium, 7-(2-((carboxymethyl)amino)-3-hydroxy-2-(hydroxymethyl)propoxy)-7-(3-(dimethyl(octadecyl)ammonio)propyl)-4,4,10,10-tetrakis(hydroxymethyl)-6,8-dioxa-3,11-diaza-7-silatridecanedioate; chloride], for which the dissolution in water result in data set [1] is reported as “readily dissolved in water”.
As to `CCCCCCCCCCCCCCCCC[N+](C)(C)CCC[Si]12OC[C@@H](O)[C@H](O1)[C@H](O)[C@H](C(=O)[O-])O2` [Example 16, Sodium (3R,4S,5S,6R)-1-(3-(heptadecyldimethylammonio)propyl)-4,6-dihydroxy-2,8,9-trioxa-1-silabicyclo[3.3.1]nonane-3-carboxylate; Chloride], in data set [1], the dissolution in water entry is listed as “poorly dissolved in water”. For the same compound, the stability in water result in data set [2] is listed as “quickly decomposed to for a biphasic mixture”.
In the same order, the values of `CCCCCCCCCCCCCCCCC[N+](C)(C)CCC[Si]1(O[C@H](C(=O)O)[C@H](O)[C@H](O)[C@@H](O)C(=O)O)O[C@@H]([C@H](O)C(=O)O)[C@H](O)[C@H](C(=O)O)O1` (stereo partly drawn) [Example 17, N-(3-((4R,5S,6R)-4-carboxy-6-((S)-carboxy(hydroxy)methyl)-2-((1S,2R,3S,4R)-1,4-dicarboxy-2,3,4-trihydroxybutoxy)-5-hydroxy-1,3,2-dioxasilinan-2-yl)propyl)-N,N-dimethylheptadecan-1-aminium chloride] are “poorly dissolved in water” and “quickly decomposed to for a biphasic mixture”.
For `CCCCCCCCCCCCCCCCCC[N+](C)(C)CCC[Si](OCC(CO)(CO)NCCS(=O)(=O)[O-])(OCC(CO)(CO)NCCS(=O)(=O)O)OCC(CO)(CO)NCCS(=O)(=O)O.[Cl-].[Na+]` [Example 21, Monosodium; 2-[[1-[[3-[dimethyl(octadecyl)ammonio]propyl-[3-hydroxy-2-(hydroxymethyl)-2-(2-sulfoethylamino)propoxy]-[3-hydroxy-2-(hydroxymethyl)-2-(2-sulfonatoethylamino)propoxy]silyl]oxymethyl]-2-hydroxy-1-(hydroxymethyl)ethyl]amino]ethanesulfonate chloride], the dissolution in water entry in data set [1] is recorded as “dissolves readily in water”.
As for “Disodium, 7-(2-((carboxymethyl)(2-hydroxyethyl)amino)ethoxy)-7-(3-(heptadecyldimethylammonio)propyl)-3,11-bis(2-hydroxyethyl)-6,8-dioxa-3,11-diaza-7-silatridecanedioate; chloride [Example 13]”, in data set [1], the dissolution in water result was “readily dissolved in water”. For the same compound, the stability in water result in data set [2] is “soon formed a suspension”.
